The IC50 is the concentration at which inhibition is half-maximal.

Drawing on ChEMBL document CHEMBL1142615, “Polyoxygenated dysidea sterols that inhibit the binding of [I125] IL-8 to the human recombinant IL-8 receptor type A” (J Nat Prod, 2000), this text covers IC50 for three compounds.

The assay concerns the target T1, C-X-C chemokine receptor type 1 (Homo sapiens, UniProt P25024).
T1 sequence (P25024 whole entry): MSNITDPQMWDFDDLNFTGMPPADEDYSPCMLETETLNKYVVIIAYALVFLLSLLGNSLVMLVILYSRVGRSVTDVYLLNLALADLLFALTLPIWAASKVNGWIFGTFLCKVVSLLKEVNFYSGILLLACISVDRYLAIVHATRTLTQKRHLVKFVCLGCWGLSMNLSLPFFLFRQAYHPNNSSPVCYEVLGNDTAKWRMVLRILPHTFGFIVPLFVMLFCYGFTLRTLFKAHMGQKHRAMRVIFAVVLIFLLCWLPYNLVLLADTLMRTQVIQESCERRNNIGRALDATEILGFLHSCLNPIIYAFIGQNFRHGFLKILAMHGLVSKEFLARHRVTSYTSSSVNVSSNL
In words: Displacement of [125I]IL8 from human recombinant IL8 type A receptor. (Loss of bound radioactivity is the signal in a displacement assay; it reports binding, not function.)
On to `CC(=O)O[C@H]1CC[C@]2(C)C3=C([C@H](OC(C)=O)[C@H](OC(C)=O)[C@@]2(O)C1)[C@@H]1CC[C@H]([C@H](C)CCCC(C)C)[C@@]1(C)C[C@H]3O`, for which the IC50 worked out at 5.5 µM.
Consider `CC(=O)O[C@H]1C=C2[C@@H]3CC[C@H]([C@H](C)CCCC(C)C)[C@@]3(C)C[C@H]3O[C@@]23[C@@]2(C)CC[C@H](O)C[C@]12O`, for which the IC50 worked out at 4.5 µM.
As for `CC(=O)O[C@H]1C2=C([C@H](O)C[C@]3(C)[C@@H]([C@H](C)CCCC(C)C)CC[C@@H]23)[C@@]2(C)CC[C@H](O)C[C@]2(O)[C@H]1OC(C)=O`, the IC50 was 20 µM.
